This is an account of results in patent US5256824A, “Substituted-amine compound and a process for the preparation thereof” (Fujisawa Pharmaceutical Co., Ltd., priority 1990, dated 1993).

For one assay, the system named is Na channel. Briefly: Na channel blocking activity (local anesthetic effect on the corneal blink reflex). Format: in vivo, Male Japanese white rabbits. The settings on record: 1.0% solution in saline, 50 μl drops to one eye. Here is the method:
Test on Na channel blocking activity
Male Japanese white rabbits weighing 2.0-3.0 kg were to evaluate the local anesthetic effect of test compound on the corneal blink reflex. Corneal reflexes were elicited by pressing a flexible monofilament (rabbit whisker) against the cornea. 1.0% Test compound solution in saline was applied to one eye (50 μl drops) and the contralateral eye received as a control. Corneal blink responses were scored at 5, and 15 minutes after test compound application.
Local anesthetic activities were expressed as an inhibition percent of blink responses.

Assay [1] concerns Urinary Bladder Contractions Induced by Water Filling. Kind of assay: Inhibition of Urinary Bladder Contractions Induced by Water Filling in Rats. The format is in vivo, Male Sprague-Dawly rats. The settings on record: Rattus norvegicus; intravenous, anesthetized rats (urethane), hyperactive bladder by water filling. The text has this:
Test on Inhibition of Urinary Bladder Contractions Induced by Water Filling in Rats
Male Sprague-Dawly rats, weighing 240-450 g, were anesthetized with urethane 1.0 g/kg s.c. The bladder was exposed through a midline incision in the abdomen for the recording of pressure within the bladder as follows; a balloon attached to one end of a stainless steel tube (O.D., 1.2 mm, 5 cm in length) was inserted into the bladder through a small incision in the bladder dome. The other end of the tube was connected to a pressure-transducer. The ureters were ligated and cut, and the proximal cut end was cannulated with polyethylene tubing and the urine was led outside.
Hyperactive urinary bladder (hyperactive contractions of the detrusor muscle) was induced by water filling of the bladder. Therefore, the balloon in the bladder was filled with water of a volume which caused a resting pressure of about 10 mmHg. Systemic blood pressure and heart rate were monitored from the common carotid artery.
When the contractile responses to water filling became constant, test compounds were administered intravenously.

Take `CC(C)(C)NC1C=CC(c2ccccc2)(c2ccccc2)C1.Cl` (single isomer, unassigned; (-)) [(-)-N-t-butyl-4,4-diphenyl-2-cyclopentenylamine hydrochloride]: the “Inhibition % of blink responses” value with Na channel (5 minutes after application) and in the assay on Na channel (15 minutes after application) was 100% throughout.
Turning to `CC(C)(C)NC1C=CC(c2ccccc2)(c2ccccc2)C1.CS(=O)(=O)O` (single isomer, unassigned; (-)) [(-)-N-t-butyl-4,4-diphenyl-2-cyclopentenylamine methanesulfonate], the ED30 in assay [1] stood at 0.18 mg/kg.
